Test systems include SNB-75; UO-31; RXF 393; HCT-15; KM12; CAKI-1; HCT-116; IGROV-1; OVCAR-8; SK-MEL-5; SNB-19; NCI-H23; LOX IMVI; SK-MEL-28; ACHN; SW-620; SF-268; MOLT-4; T47D; MDA-N.
Holding throughout (experiment): NCI tumour cell line growth inhibition, 48 h

Molecules are shown by their SMILES.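 Dose response: 5 concentrations. Exposure: 48 h. Format: 96-well plates. Endpoint: linear interpolation; highest concentration if not reached. GI50 = concentration required for 50% inhibition of growth.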 The source made the active and inactive calls. Rule as the data show it: active = GI50 up to about 1.1 µM and inactive = higher.

From ChEMBL document CHEMBL1201862, “PubChem BioAssay data set” (2004) come the findings set out here.

As to `CCOC(=O)c1c(/C=N\Nc2ccccc2)nc2ccccc2c1-c1ccccc1`, the GI50 in the test with SNB-75 was 46.5 µM (inactive); in the test on UO-31, 34.4 µM (inactive); in the test with RXF 393 it was 65.8 µM (inactive); in the test on HCT-15, 13.6 µM; in the test with KM12, 43.9 µM (inactive); in the test on CAKI-1, 68.9 µM (inactive). Moreover, the GI50 with HCT-116 was 42 µM (inactive); in the test with IGROV-1, 67.1 µM (inactive); in the test on OVCAR-8 it was 32.1 µM (inactive); in the test on SK-MEL-5, 31.2 µM (inactive); in the test on SNB-19 it was 79.1 µM (inactive); with NCI-H23, 39.7 µM (inactive). Also, the GI50 was 35.4 µM (inactive) in the test on LOX IMVI; 70.8 µM (inactive) with SK-MEL-28; 32.7 µM (inactive) in the test on ACHN; 38.1 µM (inactive) in the test on SW-620; 56.5 µM (inactive) with SF-268; 20.7 µM (inactive) in the test on MOLT-4.

On to `COc1ccc2c[n+](C)c3c4cc(OC)c(OC)cc4ccc3c2c1`, for which the GI50 is 2.47 µM (inactive) in the test on SNB-75; 44 µM (inactive) with UO-31; 15.6 µM (inactive) with RXF 393; above 41.9 µM with HCT-15; 1.43 µM (inactive) with KM12; 2.73 µM (inactive) with T47D. Besides, the GI50 was 42.3 µM (inactive) in the test on CAKI-1; 4.37 µM (inactive) in the test on HCT-116; 4.89 µM (inactive) with IGROV-1; 2.14 µM (inactive) with OVCAR-8; 14.7 µM (inactive) in the test with SK-MEL-5; 2.52 µM (inactive) in the test with SNB-19. The GI50 in the test with NCI-H23 was 3.12 µM (inactive); in the test with LOX IMVI, 4.72 µM (inactive); in the test with SK-MEL-28, 18.9 µM (inactive); with ACHN, 64.6 µM (inactive); with SW-620 it was 2.23 µM (inactive); in the test with SF-268, 1.79 µM (inactive). In addition, in the test with MOLT-4, the GI50 is 3.85 µM (inactive).

`COc1cc(/C=C/C(=O)C2(C(=O)/C=C/c3cc(OC)c(OC)c(OC)c3)CCCCC2)cc(OC)c1OC`: the GI50 was 56.4 µM (inactive) with SNB-75; 60.7 µM (inactive) in the test with UO-31; 33.3 µM in the test with HCT-15; 26.6 µM (inactive) with KM12; 76.2 µM (inactive) in the test with T47D; 49.4 µM (inactive) with CAKI-1. In addition, the GI50 with HCT-116 was 31.1 µM (inactive); with IGROV-1, 27.4 µM (inactive); in the test with OVCAR-8 it was 24.1 µM (inactive); in the test with SK-MEL-5, 34.8 µM (inactive); with SNB-19 it was 36.6 µM (inactive); in the test with NCI-H23, 53.3 µM (inactive). Also, the GI50 in the test with LOX IMVI was 38.7 µM (inactive); in the test with SK-MEL-28 it was 46.3 µM (inactive); in the test on ACHN, 62.1 µM (inactive); in the test on SW-620 it was 38.3 µM (inactive); in the test with SF-268 it was 40.5 µM (inactive).

Consider `N=C(N)NS(=O)(=O)c1ccc(NC(=O)c2c3ccccc3nc3ccccc23)cc1`, for which the GI50 is > 100 µM (inactive) in the test with SNB-75; > 100 µM (inactive) in the test on UO-31; above 100 µM in the test on HCT-15; > 100 µM (inactive) in the test on KM12; > 100 µM (inactive) in the test on CAKI-1; > 100 µM (inactive) in the test with HCT-116. Also, the GI50 is > 100 µM (inactive) in the test on IGROV-1; > 100 µM (inactive) in the test on OVCAR-8; > 100 µM (inactive) in the test with SK-MEL-5; 86.5 µM (inactive) in the test with SNB-19; > 100 µM (inactive) in the test with NCI-H23; > 100 µM (inactive) in the test on LOX IMVI. The GI50 with MDA-N, with SK-MEL-28, with ACHN, in the test on SW-620, with SF-268 and in the test with MOLT-4 was > 100 µM (inactive) throughout.

As for `CC(C)(C)OC(=O)NC(C)(C)C(=O)NCCC(=O)O`, the GI50 was > 100 µM (inactive) with SNB-75; > 100 µM (inactive) in the test on UO-31; > 100 µM (inactive) with RXF 393; above 100 µM with HCT-15; > 100 µM (inactive) in the test with KM12; > 100 µM (inactive) in the test with T47D. The GI50 with CAKI-1, in the test on IGROV-1, in the test with OVCAR-8, in the test on SK-MEL-5, with SNB-19 and in the test with NCI-H23 was > 100 µM (inactive) throughout. Moreover, the GI50 in the test on LOX IMVI, in the test on SK-MEL-28, in the test on ACHN, in the test on SW-620, in the test on SF-268 and in the test on MOLT-4 was > 100 µM (inactive) throughout.

Consider `NC(N)NCCCc1cn2c(n1)C1CCCN1C(=O)C2Cc1ccccc1` (stereo unspecified), for which the GI50 is 61 µM (inactive) with SNB-75; > 100 µM (inactive) in the test with UO-31; > 100 µM (inactive) in the test with RXF 393; above 100 µM in the test with HCT-15; > 100 µM (inactive) in the test with KM12; > 100 µM (inactive) with CAKI-1. Also, the GI50 in the test with HCT-116, with IGROV-1, in the test with OVCAR-8, with SK-MEL-5, in the test with SNB-19 and with NCI-H23 was > 100 µM (inactive) throughout. For the same molecule, the GI50 in the test with LOX IMVI, in the test with SK-MEL-28, in the test with ACHN, in the test on SW-620, in the test on SF-268 and with MOLT-4 was > 100 µM (inactive) throughout.

For the molecule `Cc1cccc(C)c1NC(=O)CCc1nnc2s/c(=C\c3ccc(Cl)cc3)c(=O)n12`, the GI50 with SNB-75 was 73.8 µM (inactive); in the test with UO-31 it was > 100 µM (inactive); in the test on RXF 393 it was 36.8 µM (inactive); in the test on HCT-15, 19.1 µM; with KM12, > 100 µM (inactive); in the test with CAKI-1 it was > 100 µM (inactive). In addition, the GI50 was 25.2 µM (inactive) in the test on HCT-116; 72.1 µM (inactive) in the test on IGROV-1; > 100 µM (inactive) in the test with OVCAR-8; > 100 µM (inactive) in the test with SK-MEL-5; > 100 µM (inactive) with SNB-19; > 100 µM (inactive) in the test with NCI-H23. The GI50 was > 100 µM (inactive) with LOX IMVI; > 100 µM (inactive) with SK-MEL-28; > 100 µM (inactive) in the test on ACHN; 21.2 µM (inactive) with SW-620; > 100 µM (inactive) in the test on SF-268; > 100 µM (inactive) in the test on MOLT-4.

As to `O=CN1CCN(C=S)CC1`, the GI50 with SNB-75 was > 100 µM (inactive); with UO-31 it was > 100 µM (inactive); with RXF 393, > 100 µM (inactive); in the test on HCT-15 it was above 100 µM; in the test with KM12 it was > 100 µM (inactive); in the test on CAKI-1, > 100 µM (inactive). Further, the GI50 with HCT-116, in the test with IGROV-1, in the test on OVCAR-8, in the test on SK-MEL-5, in the test with SNB-19 and with NCI-H23 was > 100 µM (inactive) in each case. In addition, the GI50 with LOX IMVI, in the test on SK-MEL-28, with ACHN, with SW-620, with SF-268 and in the test with MOLT-4 was > 100 µM (inactive) each time.

As to `C1=N\CCN2CCN(CC/N=C\c3ccccc3OCc3cccc(n3)COc3ccccc3/1)CC2`, the GI50 is 9.66 µM (inactive) with SNB-75; 13.8 µM (inactive) in the test on UO-31; 0.508 µM (active) in the test on RXF 393; 6.01 µM in the test on HCT-15; 8.83 µM (inactive) in the test on KM12; 2.61 µM (inactive) in the test on HCT-116. The GI50 in the test on IGROV-1 was 11.2 µM (inactive); in the test on OVCAR-8 it was 11.8 µM (inactive); in the test on SNB-19, 9.91 µM (inactive); in the test with NCI-H23, 14.6 µM (inactive); in the test on MDA-N it was 1.11 µM (active); with SK-MEL-28, 13.8 µM (inactive). Further, the GI50 with ACHN is 9.71 µM (inactive); in the test on SW-620, 2.35 µM (inactive); with SF-268 it was 2.15 µM (inactive); with MOLT-4 it was 4.6 µM (inactive).

For `COC(=O)[C@@H]1C(=O)O[C@@H](c2cc(OC)c(OC)cc2OC)[C@@H]1C(=O)OC.COC(=O)[C@H]1C(=O)O[C@@H](c2cc(OC)c(OC)cc2OC)[C@@H]1C(=O)OC`, the GI50 is > 100 µM (inactive) in the test on SNB-75; > 100 µM (inactive) with UO-31; > 100 µM (inactive) in the test with RXF 393; above 100 µM in the test on HCT-15; > 100 µM (inactive) in the test with KM12; > 100 µM (inactive) with CAKI-1. Besides, the GI50 with HCT-116, in the test on IGROV-1, in the test with OVCAR-8, in the test on SK-MEL-5, in the test with SNB-19 and in the test with NCI-H23 was > 100 µM (inactive) in each case. Besides, the GI50 with LOX IMVI, in the test with SK-MEL-28, in the test with ACHN, with SW-620, in the test on SF-268 and in the test on MOLT-4 was > 100 µM (inactive) each time.

Regarding `CC(=O)Oc1ccc(/C=C/C(=O)NCC(NC(=O)/C=C/c2ccc(OC(C)=O)c(OC(C)=O)c2)C(=O)O)cc1OC(C)=O` (stereo unspecified), the GI50 in the test with UO-31 is > 100 µM (inactive); in the test on RXF 393 it was > 100 µM (inactive); in the test with HCT-15 it was above 100 µM; in the test with KM12 it was > 100 µM (inactive); in the test on CAKI-1, > 100 µM (inactive); in the test on HCT-116 it was > 100 µM (inactive). Also, the GI50 in the test with IGROV-1 is > 100 µM (inactive); in the test on OVCAR-8, > 100 µM (inactive); in the test with SK-MEL-5, > 100 µM (inactive); in the test with SNB-19, > 100 µM (inactive); in the test with NCI-H23, > 100 µM (inactive); with LOX IMVI, 97.3 µM (inactive). Also, the GI50 was > 100 µM (inactive) in the test with MDA-N; > 100 µM (inactive) with SK-MEL-28; > 100 µM (inactive) in the test with ACHN; > 100 µM (inactive) in the test with SW-620; > 100 µM (inactive) with SF-268; 20.1 µM (inactive) in the test with MOLT-4.
